Tests used:
UGT2B10 = molecular target: T1, UGT2B10 (Homo sapiens, UniProt P36537); experiment: Inhibition of human recombinant UGT2B10 at 25 uM by fluorescence spectroscopy; parameters: scale not given: the % may be the effect or the level left; conditions: read-out: Activity
T1 sequence (P36537 whole entry): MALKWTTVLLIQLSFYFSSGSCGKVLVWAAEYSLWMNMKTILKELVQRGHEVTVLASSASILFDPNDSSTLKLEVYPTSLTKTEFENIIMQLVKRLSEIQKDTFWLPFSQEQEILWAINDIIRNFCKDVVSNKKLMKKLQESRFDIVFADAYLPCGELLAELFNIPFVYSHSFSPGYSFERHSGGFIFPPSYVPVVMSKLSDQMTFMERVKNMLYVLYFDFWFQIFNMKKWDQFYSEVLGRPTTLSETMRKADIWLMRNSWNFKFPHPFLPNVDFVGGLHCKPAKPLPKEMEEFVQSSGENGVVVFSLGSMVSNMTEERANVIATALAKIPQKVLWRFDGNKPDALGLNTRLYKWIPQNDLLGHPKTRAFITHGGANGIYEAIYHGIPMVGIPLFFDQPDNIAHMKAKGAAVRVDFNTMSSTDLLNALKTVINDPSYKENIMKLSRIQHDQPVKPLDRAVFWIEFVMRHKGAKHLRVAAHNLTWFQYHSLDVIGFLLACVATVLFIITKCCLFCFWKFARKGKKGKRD

UGT2B15 = molecular target: T2, UGT2B15 (Homo sapiens, UniProt P54855); experiment: Inhibition of human recombinant UGT2B15 at 25 uM by fluorescence spectroscopy; parameters: scale not given: the % may be the effect or the level left; conditions: read-out: Activity
T2 sequence (P54855 whole entry): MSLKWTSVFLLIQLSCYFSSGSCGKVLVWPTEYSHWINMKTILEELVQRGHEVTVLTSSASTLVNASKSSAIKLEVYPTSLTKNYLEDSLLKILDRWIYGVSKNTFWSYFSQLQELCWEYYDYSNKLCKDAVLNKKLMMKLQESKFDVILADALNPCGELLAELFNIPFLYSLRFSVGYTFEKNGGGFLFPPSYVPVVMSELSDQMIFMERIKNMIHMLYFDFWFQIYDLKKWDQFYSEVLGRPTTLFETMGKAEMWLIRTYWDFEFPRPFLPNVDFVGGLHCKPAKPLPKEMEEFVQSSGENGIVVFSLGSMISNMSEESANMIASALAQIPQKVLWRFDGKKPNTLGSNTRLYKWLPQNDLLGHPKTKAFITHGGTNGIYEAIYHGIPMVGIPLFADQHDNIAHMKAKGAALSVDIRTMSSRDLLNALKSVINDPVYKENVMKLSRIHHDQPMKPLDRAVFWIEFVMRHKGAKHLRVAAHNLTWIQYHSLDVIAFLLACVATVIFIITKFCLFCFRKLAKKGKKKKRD

[1] = molecular target: T3, UDP-glucuronosyltransferase 2B17 (Homo sapiens, UniProt O75795); experiment: Inhibition of human recombinant UGT2B17 assessed as reduction of scopoletin glucuronidation
T3 sequence (O75795 whole entry): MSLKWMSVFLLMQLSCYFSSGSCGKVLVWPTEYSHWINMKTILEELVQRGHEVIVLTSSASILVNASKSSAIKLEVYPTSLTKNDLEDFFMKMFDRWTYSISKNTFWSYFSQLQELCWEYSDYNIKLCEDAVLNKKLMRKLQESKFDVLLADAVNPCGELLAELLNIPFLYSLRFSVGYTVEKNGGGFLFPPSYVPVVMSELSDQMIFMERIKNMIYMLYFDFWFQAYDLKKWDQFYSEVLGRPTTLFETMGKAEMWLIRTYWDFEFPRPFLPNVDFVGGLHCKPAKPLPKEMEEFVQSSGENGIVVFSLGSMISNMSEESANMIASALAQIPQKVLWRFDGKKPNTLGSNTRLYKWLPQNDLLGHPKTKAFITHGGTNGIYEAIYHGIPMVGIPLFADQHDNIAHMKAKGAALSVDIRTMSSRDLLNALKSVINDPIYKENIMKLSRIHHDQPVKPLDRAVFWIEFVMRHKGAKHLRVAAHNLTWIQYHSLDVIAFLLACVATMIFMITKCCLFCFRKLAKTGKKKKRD

UGT2B4 = molecular target: T4, UGT2B4 (Homo sapiens, UniProt P06133); experiment: Inhibition of human recombinant UGT2B4 at 25 uM by fluorescence spectroscopy; parameters: scale not given: the % may be the effect or the level left; conditions: read-out: Activity
T4 sequence (P06133 whole entry): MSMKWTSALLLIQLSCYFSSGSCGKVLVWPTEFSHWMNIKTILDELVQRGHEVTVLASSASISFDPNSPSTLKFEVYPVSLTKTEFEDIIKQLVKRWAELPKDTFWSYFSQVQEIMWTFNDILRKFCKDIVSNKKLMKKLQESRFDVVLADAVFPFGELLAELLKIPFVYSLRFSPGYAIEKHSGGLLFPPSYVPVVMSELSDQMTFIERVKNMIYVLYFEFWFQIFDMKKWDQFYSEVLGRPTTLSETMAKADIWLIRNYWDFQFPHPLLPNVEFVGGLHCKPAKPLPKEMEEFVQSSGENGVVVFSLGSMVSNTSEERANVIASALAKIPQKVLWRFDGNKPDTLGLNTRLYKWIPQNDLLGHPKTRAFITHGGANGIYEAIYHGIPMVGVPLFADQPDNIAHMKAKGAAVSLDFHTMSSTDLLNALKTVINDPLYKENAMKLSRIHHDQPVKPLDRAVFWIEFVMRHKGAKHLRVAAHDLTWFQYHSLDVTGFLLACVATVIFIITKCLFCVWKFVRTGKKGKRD

UGT2B28 = molecular target: T5, UGT2B28 (Homo sapiens, UniProt Q9BY64); experiment: Inhibition of human recombinant UGT2B28 at 25 uM by fluorescence spectroscopy; parameters: scale not given: the % may be the effect or the level left; conditions: read-out: Activity
T5 sequence (Q9BY64 whole entry): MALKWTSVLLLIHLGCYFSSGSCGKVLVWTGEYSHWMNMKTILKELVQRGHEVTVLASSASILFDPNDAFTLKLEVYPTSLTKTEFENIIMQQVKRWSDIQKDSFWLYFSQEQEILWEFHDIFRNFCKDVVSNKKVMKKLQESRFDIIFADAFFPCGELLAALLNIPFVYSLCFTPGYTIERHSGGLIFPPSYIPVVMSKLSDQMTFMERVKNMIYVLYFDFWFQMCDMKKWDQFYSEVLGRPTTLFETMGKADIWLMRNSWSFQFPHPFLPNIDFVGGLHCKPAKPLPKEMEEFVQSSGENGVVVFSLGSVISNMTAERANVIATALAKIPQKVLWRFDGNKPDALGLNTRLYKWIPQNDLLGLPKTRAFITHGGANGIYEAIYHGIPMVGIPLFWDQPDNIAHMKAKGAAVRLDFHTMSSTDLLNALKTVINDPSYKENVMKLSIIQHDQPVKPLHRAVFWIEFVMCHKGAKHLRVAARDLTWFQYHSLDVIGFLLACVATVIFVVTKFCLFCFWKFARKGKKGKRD

UGT2B17 = molecular target: T6, UGT2B17 (Homo sapiens, UniProt O75795); experiment: Inhibition of human recombinant UGT2B17 at 25 uM by fluorescence spectroscopy
T6 sequence (O75795 whole entry): T3 sequence (O75795 whole entry)

- activity at 25 µM (UGT2B10): 30%
- activity at 25 µM (UGT2B15): 30%
- Ki [1]: 21.8 µM
- activity at 25 µM (UGT2B4): 30%
- activity at 25 µM (UGT2B28): 30%
- inhibition at 25 µM (UGT2B17): 70%
SMILES: CC1(C)CCC[C@]2(C)[C@@H]([C@@H](O)c3ccccc3)[C@H]3CC[C@@H]2[C@H]31

From ChEMBL document CHEMBL1143068, “Isoform-selective inhibition of the human UDP-glucuronosyltransferase 2B7 by isolongifolol derivatives” (J Med Chem, 2007)
